The values that follow come from patent US20040058914A1, “Combination drugs” (priority 2000, published 2004).

For test [1], the system named is cyclophosphamide-induced pollakiuria rats. Description: bladder capacity of cyclophosphamide-induced pollakiuria rats under urethane anesthesia (Experimental Example 1, NK-1 + NK-2 antagonist). Type of test: in vivo. As to conditions: for bladder capacity Before administration: cyclophosphamide 200 mg/kg i.p. the day before, baseline before i.v. drug; for bladder capacity Before administration / bladder capacity (%) increase / bladder capacity After administration: Compound No. 3 0.3 mg/kg, SR48968 10 mg/kg, mean ± standard error of 5-7 animals; for bladder capacity (%) increase / bladder capacity After administration: cyclophosphamide 200 mg/kg i.p., 10 min. after i.v. administration; for effect on bladder capacity (in words): cyclophosphamide-treated animals, i.v., sole vs combined administration at the doses of Table 1. The protocol: The effect afforded by the combined use of compound No. 3 and (±)SR48968 hydrochloride on the suppressive action on pollakiuria and urinary incontinence was shown by the ability to increase bladder capacity of cyclophosphamide-induced pollakiuria rats under a urethane anesthesia. Cyclophosphamide (200 mg/kg) or a solvent was intraperitoneally administered and the rats were subjected to the bladder capacity test the next day. […] The changes in the bladder capacity at 10 min. after administration were measured.
The data are expressed in mean±standard error.

Test [2] has the same test system. Description: bladder capacity of cyclophosphamide-induced pollakiuria rats under urethane anesthesia (Experimental Example 2, NK-1 antagonist + anti-cholinergic drug). Particulars: for bladder capacity Before administration: cyclophosphamide 200 mg/kg i.p. the day before, baseline before i.v. drug; for bladder capacity Before administration / bladder capacity (%) increase / bladder capacity After administration: Compound No. 3 0.3 mg/kg, oxybutynin chloride 1 mg/kg, mean ± standard error of 5-7 animals; for bladder capacity (%) increase / bladder capacity After administration: cyclophosphamide 200 mg/kg i.p., 10 min. after i.v. administration; for effect on bladder capacity (in words): cyclophosphamide-treated animals, i.v., sole vs combined administration at the doses of Table 2.

On to `Cc1ccc(-c2c3n(c(=O)c4ncccc24)CC[C@@H](C)CN(Cc2cc(C(F)(F)F)cc(C(F)(F)F)c2)C3=O)cc1` [Compound No. 3, (9R)-7-[3,5-bis(trifluoromethyl)benzyl]-6,7,8,9,10,11-hexahydro-9-methyl-5-(4-methylphenyl)-6,13-dioxo-13H-[1,4]diazocino[2,1-g][1,7]naphthyridine], for which, in test [1], the “bladder capacity Before administration” value came to 1.06 ± 0.14 mL, the “bladder capacity (%) increase” value was −0.28 ± 5.3%, the “bladder capacity After administration” value worked out at 1.05 ± 0.14 mL and the “effect on bladder capacity (in words)” value is “does not increase the bladder capacity”. In addition, in test [2], the “bladder capacity Before administration” value stood at 0.66 ± 0.08 mL, the “bladder capacity (%) increase” value is 28.6 ± 12.4%, the “bladder capacity After administration” value stood at 0.80 ± 0.09 mL and the “effect on bladder capacity (in words)” value was “does not increase the bladder capacity”.
As for `CCN(CC)CC#CCOC(=O)C(O)(c1ccccc1)C1CCCCC1` (stereo not shown) [oxybutynin chloride], in test [2], the “bladder capacity Before administration” value is 0.76 ± 0.13 mL, the “bladder capacity (%) increase” value is on record as 6.9 ± 12.4%, the “bladder capacity After administration” value stood at 0.78 ± 0.12 mL and the “effect on bladder capacity (in words)” value is “does not increase the bladder capacity”.
As for `CC(=O)NC1(c2ccccc2)CCN(CC[C@H](CN(C)C(=O)c2ccccc2)c2ccc(Cl)c(Cl)c2)CC1` (racemic) [SR48968], in test [1], the “bladder capacity Before administration” value is 0.99 ± 0.08 mL, the “bladder capacity (%) increase” value was 3.8 ± 3.3%, the “bladder capacity After administration” value stood at 1.03 ± 0.09 mL and the “effect on bladder capacity (in words)” value was “does not increase the bladder capacity”.
